Results on 42 molecules are retold here after PubChem BioAssay AID1996.

Converted amounts (≈) assume the structure as drawn.

The conditions of this series: buffer; pH 7.4; 200.0 µM.
For orientation: solubility (kinetic) means the concentration staying in solution when a stock, usually in DMSO, is diluted into the medium. Regarding `COc1ccccc1CNC(=O)Cc1ccccc1`, the kinetic solubility came out at 24.7 µg/mL (≈ 96.7 µM). In turn, `C=CCN1C(=O)C2C3CC(=O)C(c4ccccc43)C2C1=O` (configuration not stated) showed a solubility (kinetic) of over 42.2 µg/mL. Next, `Cc1ccccc1N1CC(C(=O)N2CC(C)OC(C)C2)CC1=O` (configuration not stated): 47.1 µg/mL (≈ 149 µM); `Cn1c(CCC(=O)O)nc2cc(S(=O)(=O)N3CCCC3)ccc21`: over 50.6 µg/mL.

For `O=C(COC(=O)C1CCC1)Nc1ccc(Cl)cn1`, the solubility (kinetic) was over 40.3 µg/mL. With `CC(C)(C)c1ccc(NC(=O)NC2CCCc3ccccc32)cc1` (configuration not stated) the figure was under 0.3 µg/mL; with `Cc1cc(C)cc(C(=O)N2CCN(c3ccccn3)CC2)c1`, 42.7 µg/mL (≈ 145 µM). Next, `CCn1c(Oc2ccccc2C)nc2c1c(=O)n(C)c(=O)n2C`: over 47.2 µg/mL; `COc1ccc(NS(=O)(=O)c2cccc(C(=O)O)c2)cc1S(=O)(=O)N1CCOCC1`: over 68.5 µg/mL; `O=c1c2ccccc2ncn1-c1ccc(Cl)cc1Cl`: 33.8 µg/mL (≈ 116 µM). Next, `COc1cccc(NC(=O)CC(=O)c2ccc([N+](=O)[O-])cc2)c1`: 4.3 µg/mL (≈ 13.7 µM); `O=C(COC(=O)/C=C/c1cccc(Cl)c1)NCc1cccs1`: 6.1 µg/mL (≈ 18.2 µM); `COc1ccc(CNC(=O)c2ccc(Br)cc2)cc1`: 4.1 µg/mL (≈ 12.8 µM). With `Cc1ccc(C)c(NC(=O)CCN2CCCCC2)c1`, the kinetic solubility is over 39.1 µg/mL. With `O=c1c2cc3c(nc2[nH]c(=S)n1-c1ccccc1)CCCC3` the figure was 0.5 µg/mL (≈ 1.62 µM). Consider `CCCN1CCN(CC(=O)Nc2nc3ccccc3s2)CC1`, for which the solubility (kinetic) amounted to 0.6 µg/mL (≈ 1.88 µM).

`Cc1ccccc1Nc1ccc([N+](=O)[O-])cn1`: the solubility (kinetic) is over 34.4 µg/mL.

For the molecule `O=C(Nc1ccccc1N1CCCC1)C1=COCCO1`, the kinetic solubility was over 41.1 µg/mL.

Turning to `O=C1CCCC(=O)N1c1ccc(F)cc1`, the kinetic solubility is over 31.1 µg/mL. On to `CCn1cc(S(=O)(=O)Nc2ccc(Cl)cc2F)cn1`, for which the kinetic solubility was over 45.6 µg/mL. Molecule `Cc1ccc(-c2csc(NS(=O)(=O)c3cccc(F)c3)n2)o1` displayed a solubility (kinetic) of over 50.8 µg/mL. Next, `CC1CCN(C(=O)c2ccc3c(c2)NC(=O)CN3)CC1`: over 41 µg/mL; `CC(NCC(=O)Nc1ccccc1C(=O)NC1CC1)c1cccs1` (configuration not stated): over 51.5 µg/mL; `O=C(Nc1ccc(F)cc1F)N1CCCCCC1`: over 38.1 µg/mL. With `COc1ccc(C(=O)Nc2cc(C)nn2-c2ccc(C)cc2)cc1` the figure was over 48.2 µg/mL; with `CCOc1ccc(-c2cnc(N)n2C)cc1`, 31.8 µg/mL (≈ 146 µM). Next, `Cc1ccc(-c2noc(CCCC(=O)NCC3CCCO3)n2)cc1` (configuration not stated): 42.2 µg/mL (≈ 128 µM); `COc1ccccc1CCC(=O)OCC(=O)Nc1ccc2[nH]c(=O)[nH]c2c1`: 30.5 µg/mL (≈ 82.6 µM); `CC1CCCCC1NC(=O)Cn1cnc2sccc2c1=O` (configuration not stated): over 45.8 µg/mL.

The molecule `CC(C)NS(=O)(=O)c1ccc(OCC(=O)NC(C)c2ccccc2)cc1` (configuration not stated) had a kinetic solubility of 53.1 µg/mL (≈ 141 µM). With `COc1ccc(CNC(=O)CN(C)S(=O)(=O)c2ccccc2)cc1` the figure was over 52.3 µg/mL; with `CSc1c(CN2CCN(C)CC2)c2ccccc2n1C.Cl`, 52.9 µg/mL; with `O=C(NCCN1CCCCC1)Nc1ccc(F)cc1`, 37.4 µg/mL (≈ 141 µM). With `O=C(CSc1nc(O)c(Cc2ccccc2)c(=O)[nH]1)N1CCOCC1` the figure was 40.2 µg/mL (≈ 111 µM); with `NC(=O)C1=CN(Cc2ccc(Cl)cc2)CCC1C(F)(F)F` (configuration not stated), over 47.8 µg/mL. With `Cc1ccc(-c2nc(CN(C)C3CCOC3)c(C)o2)s1` (configuration not stated) the figure was over 43.9 µg/mL; with `CCOc1ccccc1NC(=O)CCNC(=O)c1ccc(Cl)cc1`, 5.6 µg/mL (≈ 16.1 µM); with `CC1CCN(CC(=O)Nc2ccc(Cl)cc2[N+](=O)[O-])CC1`, 0.9 µg/mL (≈ 2.89 µM). Consider `C=CCNC(=S)N1CCC(C(=O)c2ccc(Cl)cc2)CC1`, for which the kinetic solubility was determined as 43.5 µg/mL (≈ 135 µM). `COc1ccc(CN2CCSCC2)c(OC)c1C` registered a solubility (kinetic) of 26.4 µg/mL (≈ 98.7 µM). With `Cc1nc2cc(NC(=O)Nc3ccccc3Cl)ccc2n1C` the figure was 7.4 µg/mL (≈ 23.5 µM).

On to `Cc1ccc(C(=O)OCC(=O)NC2CCCCC2)o1`, for which the kinetic solubility is over 39.8 µg/mL.
